Patent publication US8030498B2, “Benzoylpyrazole compounds and herbicides containing them” (Ishihara Sangyo Kaisha, Ltd., priority 2005, dated 2011)

Assays:
[1] = system: barnyardgrass (Echinochloa crus-galli L.); assay: Test Example 1: foliar treatment, growth inhibition rate, barnyardgrass; format: in vivo; conditions: 31 g/ha active ingredient, visually observed 17th to 23rd day after application
Summary of the method: (§1)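 Potted upland soil; compounds as wettable powders or emulsifiable concentrates diluted in water at 500 L/ha plus 0.1 vol % spreader, foliar-sprayed at defined leaf stages (rice 1.0–2.5, wheat 1.7–3.4, corn 2.0–3.5, greenfoxtail 1.0–3.0). Growth inhibition (0–100%) scored visually 17–23 days after application.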

[2] = system: crabgrass (Digitaria sanguinalis L.); assay: Test Example 1: foliar treatment, growth inhibition rate, crabgrass; format: in vivo; conditions: 31 g/ha active ingredient, visually observed 17th to 23rd day after application
Summary of the method: (§2)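 Visual scoring of growth inhibition, 0% (untreated) to 100% (complete kill), on days 17–23 following post-emergence spray of formulated compound in water (500 L/ha, 0.1 vol % spreader); plants treated at set leaf stages, e.g. corn 2.0–3.5, wheat 1.7–3.4.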

[3] = system: greenfoxtail (Setaria viridis L.); assay: Test Example 1: foliar treatment, growth inhibition rate, greenfoxtail; format: in vivo; conditions: 31 g/ha active ingredient, visually observed 17th to 23rd day after application
Summary of the method: as §1

[4] = system: redroot pigweed (Amaranthus retroflexus L.); assay: Test Example 1: foliar treatment, growth inhibition rate, redroot pigweed; format: in vivo; conditions: 31 g/ha active ingredient, visually observed 17th to 23rd day after application
Summary of the method: as §2

[5] = system: prickly sida (Sida spinosa L.); assay: Test Example 1: foliar treatment, growth inhibition rate, prickly sida; format: in vivo; conditions: 31 g/ha active ingredient, visually observed 17th to 23rd day after application
Summary of the method: as §2

[6] = system: velvetleaf (Abutilon theophrasti MEDIC.); assay: Test Example 1: foliar treatment, growth inhibition rate, velvetleaf; format: in vivo; conditions: 31 g/ha active ingredient, visually observed 17th to 23rd day after application
Summary of the method: as §1

[7] = system: rice (Oryza sativa L.); assay: Test Example 1: foliar treatment, growth inhibition rate, rice; format: in vivo; conditions: 31 g/ha active ingredient, visually observed 17th to 23rd day after application
Summary of the method: as §1

[8] = system: wheat (Triticum spp.); assay: Test Example 1: foliar treatment, growth inhibition rate, wheat; format: in vivo; conditions: 31 g/ha active ingredient, visually observed 17th to 23rd day after application
Summary of the method: as §1

[9] = system: corn (Zea mays L.); assay: Test Example 1: foliar treatment, growth inhibition rate, corn; format: in vivo; conditions: 31 g/ha active ingredient, visually observed 17th to 23rd day after application
Summary of the method: as §1

[10] = system: soybean (Glycine max Merr.); assay: Test Example 1: foliar treatment, growth inhibition rate, soybean; format: in vivo; conditions: 31 g/ha active ingredient, visually observed 17th to 23rd day after application
Summary of the method: as §2

[11] = system: barnyardgrass; assay: Test Example 2: soil application on the day after sowing, growth inhibition rate, barnyardgrass; format: in vivo, Echinochloa crus-galli L.; conditions: 250 g/ha active ingredient, observed on 19th to 24th day
Source text: (§3) Upland field soil was put into a 1/170,000 hectare pot, and seeds of various plants (barnyardgrass, crabgrass, greenfoxtail, redroot pigweed, prickly sida, velvetleaf, rice, wheat, corn and soybean) were sown. On the day after sowing, wettable powders or emulsifiable concentrates of the compounds of the present invention prepared in accordance with a conventional preparation method, were weighed so that the active ingredients became the prescribed amounts, and diluted with water in an amount corresponding to 500 liter per 1 hectare, followed by soil application with a small sprayer. On the 19th to 24th day after the application, the state of growth of the respective plants was visually observed, and the herbicidal effect was evaluated in accordance with a growth inhibition rate (%) of from 0 (equivalent to the non-treated area) to 100% (complete kill).

[12] = system: crabgrass; assay: Test Example 2: soil application on the day after sowing, growth inhibition rate, crabgrass; format: in vivo, Digitaria sanguinalis L.; conditions: 250 g/ha active ingredient, observed on 19th to 24th day
Summary of the method: (§4)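 Upland soil pots sown with crop and weed seeds; next day wettable powder or emulsifiable concentrate at prescribed active-ingredient amounts, diluted to 500 L/ha water, sprayed onto soil. Growth inhibition scored visually 19–24 days later, 0 (as untreated) to 100% (complete kill).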

[13] = system: greenfoxtail; assay: Test Example 2: soil application on the day after sowing, growth inhibition rate, greenfoxtail; format: in vivo, Setaria viridis L.; conditions: 250 g/ha active ingredient, observed on 19th to 24th day
Source text: as §3

[14] = system: redroot pigweed; assay: Test Example 2: soil application on the day after sowing, growth inhibition rate, redroot pigweed; format: in vivo, Amaranthus retroflexus L.; conditions: 250 g/ha active ingredient, observed on 19th to 24th day
Summary of the method: as §4

[15] = system: prickly sida; assay: Test Example 2: soil application on the day after sowing, growth inhibition rate, prickly sida; format: in vivo, Sida spinosa L.; conditions: 250 g/ha active ingredient, observed on 19th to 24th day
Source text: as §3

[16] = system: velvetleaf; assay: Test Example 2: soil application on the day after sowing, growth inhibition rate, velvetleaf; format: in vivo, Abutilon theophrasti MEDIC.; conditions: 250 g/ha active ingredient, observed on 19th to 24th day
Summary of the method: as §4

[17] = system: rice; assay: Test Example 2: soil application on the day after sowing, growth inhibition rate, rice; format: in vivo, Oryza sativa L.; conditions: 250 g/ha active ingredient, observed on 19th to 24th day
Source text: as §3

[18] = system: wheat; assay: Test Example 2: soil application on the day after sowing, growth inhibition rate, wheat; format: in vivo, Triticum spp.; conditions: 250 g/ha active ingredient, observed on 19th to 24th day
Source text: as §3

[19] = system: corn; assay: Test Example 2: soil application on the day after sowing, growth inhibition rate, corn; format: in vivo, Zea mays L.; conditions: 250 g/ha active ingredient, observed on 19th to 24th day
Summary of the method: as §4

[20] = system: soybean; assay: Test Example 2: soil application on the day after sowing, growth inhibition rate, soybean; format: in vivo, Glycine max Merr.; conditions: 250 g/ha active ingredient, observed on 19th to 24th day
Source text: as §3

| Compound | Growth inhibition rate (%) Barnyardgrass [1] [%] | Growth inhibition rate (%) Crabgrass [2] [%] | Growth inhibition rate (%) Greenfoxtail [3] [%] | Growth inhibition rate (%) redroot pigweed [4] [%] | Growth inhibition rate (%) Prickly sida [5] [%] | Growth inhibition rate (%) Velvetleaf [6] [%] | Growth inhibition rate (%) Rice [7] [%] | Growth inhibition rate (%) Wheat [8] [%] | Growth inhibition rate (%) Corn [9] [%] | Growth inhibition rate (%) Soybean [10] [%] | Growth inhibition rate (%) Barnyardgrass [11] [%] | Growth inhibition rate (%) Crabgrass [12] [%] | Growth inhibition rate (%) Greenfoxtail [13] [%] | Growth inhibition rate (%) redroot pigweed [14] [%] | Growth inhibition rate (%) Prickly sida [15] [%] | Growth inhibition rate (%) Velvetleaf [16] [%] | Growth inhibition rate (%) Rice [17] [%] | Growth inhibition rate (%) Wheat [18] [%] | Growth inhibition rate (%) Corn [19] [%] | Growth inhibition rate (%) Soybean [20] [%] | other results |
| --- | --- | --- | --- | --- | --- | --- | --- | --- | --- | --- | --- | --- | --- | --- | --- | --- | --- | --- | --- | --- | --- |
| CCSC(=O)Oc1c(C(=O)c2ccc(S(C)(=O)=O)c(OCC3CCCCO3)c2C)cnn1C (stereo not drawn) [compound 215] | 100 | 60 | 70 | 95 | 50 | 50 | 70 | 0 | 30 | 95 | 90 | 95 | 70 | 60 | 40 | 0 | 90 | 0 | 0 |  |  |
| CCn1ncc(C(=O)c2ccc(S(C)(=O)=O)c(C(=O)OC)c2C)c1OC(=O)SC [compound 4] | 95 | 95 | 100 |  | 80 | 95 | 100 | 50 | 5 | 95 | 80 | 100 | 70 | 100 | 70 | 60 | 70 | 0 | 0 | 50 |  |
| COC(=O)c1c(S(C)(=O)=O)ccc(C(=O)c2cnn(C)c2OC(=O)SC)c1Cl [compound 29] | 80 | 50 | 50 | 70 | 60 | 65 | 40 | 0 | 10 | 60 | 50 | 10 | 40 |  | 60 | 50 | 10 | 0 | 0 | 40 |  |
| CCSC(=O)Oc1c(C(=O)c2ccc(S(C)(=O)=O)c(COCC(F)(F)F)c2C)cnn1C [compound 69] | 95 | 98 | 95 | 85 | 70 | 95 | 80 | 0 | 50 | 98 | 70 | 95 | 50 | 100 | 70 | 70 | 70 | 0 | 0 |  |  |
| CCSC(=O)Oc1c(C(=O)c2ccc(S(C)(=O)=O)c(C(=O)SC)c2Cl)cnn1C [compound 31] | 100 | 30 | 80 | 70 | 70 | 60 | 60 | 0 | 60 | 50 | 60 | 65 | 70 | 60 | 70 | 60 | 60 | 0 | 0 |  |  |
| CCSC(=O)Oc1c(C(=O)c2ccc(S(C)(=O)=O)c(OCC(OC)OC)c2C)cnn1C [Compound No. 209, 5-(ethylthio)carbonyloxy-1-methylpyrazol-4-yl 3-(2,2-dimethoxyethoxy)-2-methyl-4-(methylsulfonyl)phenyl ketone] |  |  |  | 98 | 90 |  |  |  |  | 100 |  |  |  |  |  |  |  |  |  |  | pest or weed control at 31 g/ha ([1]; Echinochloa crus-galli): 100%; pest or weed control at 31 g/ha ([2]; Digitaria sanguinalis): 95%; pest or weed control at 31 g/ha ([3]; Setaria viridis): 98%; pest or weed control at 31 g/ha ([6]; Abutilon theophrasti): 100%; pest or weed control at 31 g/ha ([7]; Oryza sativa): 95%; pest or weed control at 31 g/ha ([8]; Triticum): 0%; pest or weed control at 31 g/ha ([9]; Zea mays): 0%; inhibition at 250 g/ha ([11]; Echinochloa crus-galli): 95%; inhibition at 250 g/ha ([12]; Digitaria sanguinalis): 95%; inhibition at 250 g/ha ([13]; Setaria viridis): 100%; inhibition at 250 g/ha ([14]; Amaranthus retroflexus): 95%; inhibition at 250 g/ha ([15]; Sida spinosa): 30%; inhibition at 250 g/ha ([16]; Abutilon theophrasti): 50%; inhibition at 250 g/ha ([17]; Oryza sativa): 90%; inhibition at 250 g/ha ([18]; Triticum aestivum): 20%; inhibition at 250 g/ha ([19]; Zea mays): 0% |
